What was measured:
MTT cytotoxicity assay = format: cell-based; details: mouse, 3T3 mouse fibroblast cells, 3T3 cells, 50% growth inhibition, read-out: Cytotoxicity IC50 ± SD
Experimental: Cytotoxicity studies were performed using a colorimetric assay that measures the reduction of 3-(4,5-dimethythiazol-2-yl)-2,5-diphenyl tetrazolium bromide (MTT) (yellow in color), by mitochondrial enzyme (i.e. succinate dehydrogenase). The MTT enters into the mitochondria of cell, where it is reduced to an insoluble formazan salt (purple in color). The extent of MTT reduction to formazan within cells was measured spectrophotometrically. As reduction of MTT can only occur in metabolically active cells the level of activity is actually a measure of the viability of the cells^22.
Mouse fibroblast cell line 3T3 was cultured in DMEM, supplemented with 5% of FBS, 100 IU/ml of penicillin and 100 μg/ml of streptomycin, and kept at 37° C. in 5% CO2 incubator. For the preparation of cell culture 100 μL/well of cell solution (5×10^4 cells/ml) was added into 96-well plate. The plate was incubated for overnight, and fresh medium was added after the removal of old medium. The test compounds were also added in different concentrations into the plate and plate was again incubated for 48 hrs. After the completion of this incubation period 200 μL MTT (0.5 mg/ml) was added and plate was again incubated for 4 hrs, after this final incubation 100 μL of DMSO was added to each well. The level of MTT reduction to formazan was evaluated by change in absorbance at 540 nm using a micro plate reader (Spectra Max plus, Molecular Devices, CA, USA).

[1] = biological target: T1, Bovine Carbonic Anhydrase-II (Bos taurus, UniProt P00921); experiment: Kinetics studies (Lineweaver-Burk, Dixon plots) against Bovine Carbonic Anhydrase-II; format: biochemical; design: Vmax app: unit not given here
T1 construct: pure bovine erythrocyte CA-II; from tissue; host or cells: bovine erythrocytes
T1 sequence (P00921 whole entry): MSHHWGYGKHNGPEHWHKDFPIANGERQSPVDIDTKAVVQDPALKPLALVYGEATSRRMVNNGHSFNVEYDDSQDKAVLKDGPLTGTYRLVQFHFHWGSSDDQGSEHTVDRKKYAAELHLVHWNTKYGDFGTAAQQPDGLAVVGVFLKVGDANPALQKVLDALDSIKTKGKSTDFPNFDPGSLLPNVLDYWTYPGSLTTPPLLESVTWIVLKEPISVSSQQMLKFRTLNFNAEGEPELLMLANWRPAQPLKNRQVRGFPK
Experimental: FIG. 2B depicts the double reciprocal plot for Ki determination which is between Slope Vs Inhibitor Conc.
FIG. 3B depicts the double reciprocal plot for Ki determination which is between Slope Vs Inhibitor Conc.
Kinetics studies were performed for each analogue. […] The Grafit version 7.0 was used for the construction of Lineveawer-Burk plots and their secondary replots.

[2] = biological target: T2, Human Carbonic Anhydrase-II (human erythrocyte CA-II) (Homo sapiens, UniProt P00918); experiment: HCA-II inhibitory activity, 4-nitrophenyl acetate spectrophotometric assay; format: biochemical; details: 4-nitrophenyl acetate 0.7 mM, pH 7.4, 25° C., 15 min preincubation; read-out: IC50 ± S.E.M. HCA-II
T2 construct: purified human erythrocyte CA-II; from tissue; host or cells: human erythrocytes
Experimental: (§1) Nineteen different analogues of benzamide sulfonamides were evaluated for carbonic anhydrase-II inhibition. The rate of catalyzed reaction was monitored by the amount of product formation by using the chromogenic substrate i.e., 4-nitrophenyl acetate.
Hydrolysis of 4-NPA (a colorless compound): yields 4-nitrophenol and […]. The reaction is monitored by quantifying the formation of 4-nitrophenol, a yellow colored compound.
In successive experiments, HEPES-tris was used as a buffer for the reaction at final concentration of 20 mM, with 7.4 pH. The total reaction volume of 200 μL includes, 140 μL of the HEPES-tris, 20 μL of test compound diluted in DMSO (20 μL of DMSO as a control sample), 20 μL of purified human erythrocyte CA-II (0.1 mg/mL) prepared in deionized water and 20 μL of a solution of 4-NPA (0.7 mM diluted in ethanol). Adhesion of enzyme with the plastic-ware was avoided by the addition of bovine serum albumin (1 mg/mL).
The 20 μL of test compound was incubated with enzyme for a period of 15 min. The rate of product formation was monitored with the addition of 20 μL substrate prepared in ethanol at a final concentration of 0.7 mM 4-nitrophenyl acetate at 25° C. for a period of 30 min with regular interval of 1 min.
The assay was performed in triplicates by using 96-well flat bottom plate.
The enzyme inhibitory activities were calculated using the following formula: […]
(§2) Where test is the enzyme activity with sample and control is the enzyme activity without sample. The IC50 of the compounds were calculated by using EZ-Fit Enzyme Kinetic Program (Perrella Scientific Inc. Amhrest, U.S.A).

[3] = biological target: T3, Bovine Carbonic Anhydrase-II (bovine erythrocyte CA-II) (Bos taurus, UniProt P00921); experiment: Bovine carbonic anhydrase-II inhibition, 4-nitrophenyl acetate spectrophotometric assay; format: biochemical; details: 4-nitrophenyl acetate 0.7 mM, pH 7.4, 15 min preincubation; read-out: IC50 ± S.E.M. BCA-II
T3 construct: pure bovine erythrocyte CA-II; from tissue; host or cells: bovine erythrocytes
T3 sequence (P00921 whole entry): as above
Experimental: as §1
4-Nitrophenyl acetate (4-NPA) is a colorless compound which is used as a substrate in carbonic anhydrase inhibition assay. The reaction involves the hydrolysis of 4-nitrophenyl acetate into […] and 4-nitrophenol a yellow colored compound. During this experiment, HEPES-tris buffer was used at 20 mM concentration with pH 7.4.
After 15 min of incubation of the enzyme with the test compound, the substrate was added to initiate the reaction. The reaction was carried out in triplicate with different concentrations of test compounds was used.
In this assay protocol, the reaction was performed by using a 96-well flat bottom plate.
The amount of product formation was measured at 400 nm for 30 min with 1 min interval, multiplate reader SPECTRA max 340 (Molecular Devices, CA, USA) was used to monitor the product formation.
The enzyme inhibitory activities were calculated using the following formula:
% Inhibition=100−(O.D of test/O.D of control)*100
as §2

Q: Which IC50 at 48 h (MTT cytotoxicity assay) does the source give for `COc1cccc(C(=O)NC(=S)Nc2ccc(S(N)(=O)=O)cc2)c1` [Compound 11, 3-Methoxy-N-(4-sulfamoylphenylcarbamothioyl)benzamide] here?
A: > 30000 nM

Q: What about the “Type of Inhibition” value ([1]; Lineweaver-Burk / Dixon plots) of the same compound?
A: Noncompetitive

Q: And the Vmax app ([1]; apparent Vmax with inhibitor (0.2-0.00625 μM))?
A: 35.21

Q: And the Vmax ([1]; enzyme Vmax without inhibitor)?
A: 88.49 (μM/L/min)^−1

Q: And the Ki ([1]; from secondary replots / Dixon plot, read-out: Ki)?
A: 280 nM

Q: And the IC50 [2]?
A: 190 ± 5 nM

Q: And the IC50 [3]?
A: 90 ± 3 nM

Reference: patent US20170073306A1, “POTENT INHIBITORS OF HUMAN CARBONIC ANHYDRASE II AND BOVINE CARBONIC ANHYDRASE II AND THEIR MECHANISM OF ACTION” (priority 2015, published 2017)
